Measured values reported in ChEMBL document CHEMBL5390260 (J Med Chem, 2023).
pEC50, pIC50, pKi: −log10 of the molar value. Active and inactive are the calls of the source. The rule behind the calls is not given here.

What was measured:
MDCK [1] = assay: Cytotoxicity against MDCK cells assessed as reduction in cell viability at 1 to 100 nM incubated for 72 hrs by WST-1 assay; assay type: toxicity, cell-based, Canis lupus familiaris; conditions: dog, 0.1 µM, dose 1-100 nM
HCT-116 [2] = assay: Antiproliferative activity against human HCT-116 cells assessed as inhibition of cell growth measured after 48 to 72 hrs by MTT assay; assay type: functional, cell-based
SW480 [3] = assay: Antiproliferative activity against human SW480 cells assessed as inhibition of cell growth measured after 48 to 72 hrs by XTT assay; assay type: functional, cell-based
SW-620 [4] = assay: Antiproliferative activity against human SW620 cells assessed as inhibition of cell growth measured after 48 to 72 hrs by XTT assay; assay type: functional, cell-based
HCT-116 [5] = assay: Antiproliferative activity against human HCT-116 cells assessed as inhibition of cell growth measured after 48 to 72 hrs in presence of 5-fluorouracil by MTT assay; assay type: functional, cell-based
SW480 [6] = assay: Antiproliferative activity against human SW480 cells assessed as inhibition of cell growth measured after 48 to 72 hrs in presence of 5-fluorouracil by XTT assay; assay type: functional, cell-based
SW-620 [7] = assay: Antiproliferative activity against human SW620 cells assessed as inhibition of cell growth measured after 48 to 72 hrs in presence of 5-fluorouracil by XTT assay; assay type: functional, cell-based
MCF7 = assay: Antiproliferative activity against human MCF7 cells assessed as inhibition of cell growth measured after 48 hrs by sulforhodamine B assay; assay type: functional, cell-based; conditions: MCF7, 48 h
OVCAR-8 = assay: Antiproliferative activity against human OVCAR-8 cells assessed as inhibition of cell growth measured after 48 hrs by sulforhodamine B assay; assay type: functional, cell-based; conditions: OVCAR-8, 48 h
NCI/ADR-RES = assay: Antiproliferative activity against human NCI/ADR-RES cells assessed as inhibition of cell growth measured after 48 hrs by sulforhodamine B assay; assay type: functional, cell-based
MDA-MB-231 = assay: Antiproliferative activity against human MDA-MB-231 cells assessed as inhibition of cell growth at 0.1 to 30 uM measured after 72 hrs by propidium iodide staining based cytofluorimetric analysis; assay type: functional; conditions: dose 0.1-30 µM
BT-549 = assay: Antiproliferative activity against human BT-549 cells assessed as inhibition of cell growth at 0.1 to 30 uM measured after 72 hrs by propidium iodide staining based cytofluorimetric analysis; assay type: functional; conditions: dose 0.1-30 µM
T-cell [8] = assay: Induction of apoptosis in human T-lymphocyte assessed as late apoptotic cells at 30 uM measured after 72 hrs by Annexin-V/propidium iodide staining based flow cytometric analysis (reference value: 14%); assay type: toxicity
T-cell [9] = assay: Induction of apoptosis in human T-lymphocyte assessed as increase in cell death at 30 uM measured after 72 hrs by Annexin-V/propidium iodide staining based flow cytometric analysis relative to control; assay type: toxicity
HCT-116 [10] = assay: Induction of apoptosis in human HCT-116 cells assessed as increase in cleaved PARP level upto 30 uM measured after 72 hrs by Western blotting analysis; assay type: functional, cell-based
HCT-116 [11] = assay: Induction of apoptosis in human HCT-116 cells assessed as increase in cleaved caspase-3 level upto 30 uM measured after 72 hrs by Western blotting analysis; assay type: functional, cell-based
HEK293T [12] = assay: Inhibition of Wnt/beta-catenin signalling pathway in LiCl stimulated HEK293T cells transfected with renilla luciferase and TOPFlash reporter gene incubated for 24 hrs by luminescence based analysis; assay type: cell-based; conditions: Homo sapiens, dose <= 30.0 µM
HEK293T [13] = assay: Inhibition of Wnt/beta-catenin signalling pathway in LiCl stimulated HEK293T cells transfected with renilla luciferase and FOPFlash reporter gene upto 30 uM incubated for 24 hrs by luminescence based analysis; assay type: cell-based; conditions: Homo sapiens
HCT-116 [14] = assay: Inhibition of Wnt/beta-catenin signalling pathway in LiCl stimulated human HCT-116 cells assessed as reduction in beta-catenin level upto 30 uM incubated for 24 hrs by Western blotting analysis; assay type: cell-based
HCT-116 [15] = assay: Inhibition of Wnt/beta-catenin signalling pathway in LiCl stimulated human HCT-116 cells assessed as reduction in c-MYC level upto 30 uM incubated for 24 hrs by Western blotting analysis; assay type: cell-based
HCT-116 [16] = assay: Inhibition of Wnt/beta-catenin signalling pathway in LiCl stimulated human HCT-116 cells assessed as reduction in […] gene expression upto 30 uM incubated for 24 hrs by RT-PCR analysis; assay type: cell-based
HCT-116 [17] = assay: Inhibition of Wnt/beta-catenin signalling pathway in LiCl stimulated human HCT-116 cells assessed as reduction in Sal4 gene expression upto 30 uM incubated for 24 hrs by RT-PCR analysis; assay type: cell-based
HT-29 [18] = assay: Cytotoxicity against doxorubicin-sensitive human HT-29 cell assessed as reduction in cell viability at 1 to 100 nM incubated for 72 hrs by WST-1 assay; assay type: functional; conditions: dose 1-100 nM
HT-29 [19] = assay: Cytotoxicity against doxorubicin-resistant human HT-29 cell assessed as reduction in cell viability at 1 to 100 nM incubated for 72 hrs by WST-1 assay; assay type: functional; conditions: dose 1-100 nM
[20] = Cytotoxicity against MDCK-P-gp cells assessed as reduction in cell viability at 1 to 100 nM incubated for 72 hrs by WST-1 assay; assay type: toxicity, cell-based, Canis lupus familiaris; conditions: dog, 0.1 µM, dose 1-100 nM
[21] = target: T1, ATP-dependent translocase ABCB1 (Homo sapiens, UniProt P08183); assay: Inhibition of P-gp in doxorubicin-resistant human HT-29 cell assessed as increase in intracellular doxorubicin accumulation incubated for 72 hrs in presence of doxorubicin by spectrofluorimetric analysis; assay type: cell-based; conditions: 0.1 µM, dose 100 nM
T1 sequence (P08183 whole entry): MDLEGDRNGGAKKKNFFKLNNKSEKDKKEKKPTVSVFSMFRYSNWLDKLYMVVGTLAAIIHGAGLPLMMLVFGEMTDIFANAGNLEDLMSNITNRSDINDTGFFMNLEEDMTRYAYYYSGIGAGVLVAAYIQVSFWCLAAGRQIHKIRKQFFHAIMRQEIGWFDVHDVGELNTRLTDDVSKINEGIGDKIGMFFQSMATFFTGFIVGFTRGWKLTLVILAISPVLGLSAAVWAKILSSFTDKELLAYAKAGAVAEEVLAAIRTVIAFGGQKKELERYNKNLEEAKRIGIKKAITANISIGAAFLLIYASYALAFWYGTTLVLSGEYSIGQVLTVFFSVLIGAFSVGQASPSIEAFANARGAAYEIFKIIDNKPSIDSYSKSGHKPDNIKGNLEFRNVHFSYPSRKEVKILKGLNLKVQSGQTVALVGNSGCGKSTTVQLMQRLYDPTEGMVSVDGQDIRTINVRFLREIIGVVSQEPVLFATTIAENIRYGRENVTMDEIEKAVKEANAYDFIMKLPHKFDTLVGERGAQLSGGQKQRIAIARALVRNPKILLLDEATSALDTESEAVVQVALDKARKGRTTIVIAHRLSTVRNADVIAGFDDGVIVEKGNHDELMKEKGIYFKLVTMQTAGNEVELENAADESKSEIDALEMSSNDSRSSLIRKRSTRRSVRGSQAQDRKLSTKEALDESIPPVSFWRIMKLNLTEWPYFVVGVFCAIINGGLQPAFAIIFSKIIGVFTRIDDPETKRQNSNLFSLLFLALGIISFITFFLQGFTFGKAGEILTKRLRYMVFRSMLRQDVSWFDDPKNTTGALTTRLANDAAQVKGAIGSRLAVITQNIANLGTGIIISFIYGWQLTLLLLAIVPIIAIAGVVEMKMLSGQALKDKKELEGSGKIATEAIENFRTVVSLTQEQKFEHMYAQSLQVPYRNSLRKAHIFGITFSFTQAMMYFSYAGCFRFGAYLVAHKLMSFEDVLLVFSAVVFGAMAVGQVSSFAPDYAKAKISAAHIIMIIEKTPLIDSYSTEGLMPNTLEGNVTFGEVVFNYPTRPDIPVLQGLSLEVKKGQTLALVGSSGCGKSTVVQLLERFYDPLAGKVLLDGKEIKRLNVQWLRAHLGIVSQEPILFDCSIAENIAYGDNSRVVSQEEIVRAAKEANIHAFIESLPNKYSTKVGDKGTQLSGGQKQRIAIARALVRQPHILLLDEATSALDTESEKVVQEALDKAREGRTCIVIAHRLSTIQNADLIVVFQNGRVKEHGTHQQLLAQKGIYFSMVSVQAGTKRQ

[22] = target: T1, ATP-dependent translocase ABCB1; assay: Inhibition of P-gp in human HT-29 cells assessed as effect on intracellular doxorubicin accumulation at 1 to 100 nM incubated for 72 hrs in presence of doxorubicin by spectrofluorimetric analysis; assay type: cell-based; conditions: dose 1-100 nM
MDCK-P-gp [23] = assay: Inhibition of P-gp in MDCK-P-gp cells assessed as effect on intracellular doxorubicin accumulation at 1 to 100 nM incubated for 72 hrs in presence of doxorubicin by […] assay; assay type: cell-based; conditions: Canis lupus familiaris, dose 1-100 nM
[24] = target: T1, ATP-dependent translocase ABCB1; assay: Inhibition of P-gp ATPase activity in doxorubicin-resistant human HT-29 cell assessed as reduction in rate of ATP hydrolysis at 10 nM incubated for 3 hrs by spectrophotometric analysis; assay type: cell-based; conditions: 0.01 µM
MDCK-P-gp [25] = assay: Inhibition of P-gp ATPase activity in MDCK-P-gp cells assessed as reduction in rate of ATP hydrolysis at 10 nM incubated for 3 hrs by spectrophotometric analysis; assay type: cell-based; conditions: Canis lupus familiaris
HT-29 [26] = assay: Cytotoxicity against doxorubicin-sensitive human HT-29 cell assessed as reduction in cell viability at 1 to 100 nM incubated for 72 hrs in presence of doxorubicin by WST-1 assay; assay type: functional, cell-based; conditions: dose 1-100 nM
HT-29 [27] = assay: Cytotoxicity against doxorubicin-resistant human HT-29 cell assessed as reduction in cell viability incubated for 72 hrs in presence of doxorubicin by WST-1 assay; assay type: functional, cell-based; conditions: dose 1-100 nM
MDCK [28] = assay: Cytotoxicity against MDCK cells assessed as reduction in cell viability at 1 to 100 nM incubated for 72 hrs in presence of doxorubicin by WST-1 assay; assay type: toxicity, cell-based, Canis lupus familiaris; conditions: dog, 0.1 µM, dose 1-100 nM
[29] = Cytotoxicity against MDCK-P-gp cells assessed as reduction in cell viability incubated for 72 hrs in presence of doxorubicin by WST-1 assay; assay type: toxicity, cell-based, Canis lupus familiaris; conditions: dog, dose 1-100 nM
HT-29 [30] = assay: Cytotoxicity against doxorubicin-resistant human HT-29 cell assessed as reduction in cell viability […] incubated for 72 hrs in presence of doxorubicin by WST-1 assay; assay type: functional, cell-based
Carbonic anhydrase 9 = Carbonic anhydrase 9 (Homo sapiens, UniProt Q16790)
Carbonic anhydrase 12 = Carbonic anhydrase 12 (Homo sapiens, UniProt O43570); assay: Binding affinity to human recombinant CA12 assessed as inhibition constant incubated for 15 mins by phenol red dye based stopped flow CO2 hydration assay
Chain of Carbonic anhydrase 12 (O43570 whole entry): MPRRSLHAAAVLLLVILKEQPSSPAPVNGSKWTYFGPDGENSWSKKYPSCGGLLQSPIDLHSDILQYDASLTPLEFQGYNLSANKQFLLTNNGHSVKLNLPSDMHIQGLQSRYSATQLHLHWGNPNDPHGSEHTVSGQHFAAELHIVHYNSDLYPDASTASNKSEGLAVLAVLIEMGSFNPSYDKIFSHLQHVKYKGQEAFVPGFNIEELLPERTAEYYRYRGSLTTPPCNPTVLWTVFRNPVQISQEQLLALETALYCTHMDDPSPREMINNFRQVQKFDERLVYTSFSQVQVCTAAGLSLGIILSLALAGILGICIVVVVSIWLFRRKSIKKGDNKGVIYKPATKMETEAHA

Carbonic anhydrase 2 = Carbonic anhydrase 2 (Homo sapiens, UniProt P00918); assay: Binding affinity to human recombinant CA2 assessed as inhibition constant incubated for 15 mins by phenol red dye based stopped flow CO2 hydration assay
Tubulin (Homo sapiens) = Tubulin (Homo sapiens) (UniProt P68371+Q9H4B7+P0DPH7+P68366+Q13509+Q71U36+P04350+Q3ZCM7+P07437+P68363+Q9BQE3+Q6PEY2+Q13885+Q9BVA1+Q9BUF5); assay: Inhibition of tubulin polymerization (unknown origin) at 20 uM preincubated for 15 mins followed by GTP addition by spectrophotometric analysis; assay type: protein-complex assay

`COc1cc(C(=O)c2cn(-c3ccc(S(N)(=O)=O)cc3)cc2-c2ccccc2)cc(OC)c1OC` gave an Activity (MDCK [1]) of over 75%, a pIC50 (HCT-116 [2]) of 5.06 and a pIC50 (SW480 [3]) of 4.75. The pIC50 (SW-620 [4]) was 4.62, the pIC50 (HCT-116 [5]) was 4.77 and the pIC50 (SW480 [6]) was 4.37. It also gave a pIC50 (SW-620 [7]) of 4.43, a pIC50 (MCF7) of 5.72 and a pIC50 (OVCAR-8) of 5.72. For the same compound, the pIC50 (NCI/ADR-RES) was 5.68, the Activity (MDA-MB-231) was “Active” and the Activity (BT-549) was “Active”. For the same compound, the Activity (T-cell [8]) was 20%, the Activity (T-cell [9]) was 6% and the Activity (HCT-116 [10]) was “Active”. For the same compound, the Activity (HCT-116 [11]) was “Active”, the inhibition (HEK293T [12]) was “Dose-Dependent Effect” and the inhibition (HEK293T [13]) was “inactive”. For the same compound, the inhibition (HCT-116 [14]) was “Active”, the inhibition (HCT-116 [15]) was “Active” and the inhibition (HCT-116 [16]) was “Active”. For the same compound, the inhibition (HCT-116 [17]) was “Active”, the Activity (HT-29 [18]) was over 75% and the Activity (HT-29 [19]) was over 75%. The Activity [20] was over 75%, the “inhibition (INH)” value [21] was “Dose-Dependent Effect” and the “inhibition (INH)” value [22] was “Not Active”. The inhibition (MDCK-P-gp [23]) was “inactive”, the “inhibition (INH)” value [24] was “Active” and the inhibition (MDCK-P-gp [25]) was “Active”. The Activity (HT-29 [26]) was “Active”, the Activity (HT-29 [27]) was “Dose-Dependent Effect” and the Activity (MDCK [28]) was “Non-Toxic”. The Activity [29] was “Dose-Dependent Effect” and the Activity (HT-29 [30]) was “Active”.
With `NS(=O)(=O)c1ccc(-n2ccc(C(=O)c3ccccc3)c2)cc1` the pKi (Carbonic anhydrase 9) was 7.18 and the pKi (Carbonic anhydrase 12) was 7.33.
Work on `NS(=O)(=O)c1ccc(-n2cc(C(=O)c3ccccc3)c(-c3ccccc3)c2)cc1` yielded a pKi (Carbonic anhydrase 9) of 7.41 and a pKi (Carbonic anhydrase 12) of 7.23.
`COc1cc(C(=O)c2cn(-c3ccc(S(N)(=O)=O)cc3)c3ccccc23)cc(OC)c1OC` gave a pIC50 (HCT-116 [5]) of 4.85, a pIC50 (SW480 [6]) of 4.30 and a pIC50 (SW-620 [7]) of 4.59.
Compound `Nc1ccc(C(=O)c2ccc(-c3ccc(S(N)(=O)=O)cc3)cc2)cc1` has a pEC50 (NCI/ADR-RES) of 5.68.
In the case of `COc1cccc2c1C(=O)c1c(O)c3c(c(O)c1C2=O)C[C@@](O)(C(=O)CO)C[C@@H]3O[C@H]1C[C@H](N)[C@H](O)[C@H](C)O1` [DOXORUBICIN], the Activity (MDCK [1]) was “Toxic”, the Activity (HT-29 [18]) was “Active” and the Activity (HT-29 [19]) was “inactive”. The Activity [20] was “Non-Toxic”.
`NS(=O)(=O)c1ccc(-n2cc(C(=O)c3ccccc3)c3ccccc32)cc1` showed a pKi (Carbonic anhydrase 9) of 7.50 and a pKi (Carbonic anhydrase 12) of 7.28.
With `COc1cc(C(=O)c2ccn(-c3ccc(S(N)(=O)=O)cc3)c2)cc(OC)c1OC` the pKi (Carbonic anhydrase 2) was 7.99, the pKi (Carbonic anhydrase 9) was 7.35 and the pKi (Carbonic anhydrase 12) was 7.94. The inhibition (Tubulin (Homo sapiens)) was “inactive”, the pIC50 (MCF7) was 5.41 and the pIC50 (OVCAR-8) was 5.72. The pIC50 (NCI/ADR-RES) was 5.66.
